Measurements as given in patent US4549023A, “3-Aminoindazole derivatives” (priority 1980, dated 1985).
Where two headings read alike, the source gives them in different places.

What was measured:
[1] = tested on: carrageenin edema in rat's paw; experiment: Carrageenin Edema Test in Rat's Paw (anti-inflammatory activity); type: in vivo, Female Wistar rats; conditions: for inhibition in vivo at 100 mg/kg: Rattus norvegicus, hydrochloric acid salts; for Inhibition values compared with comparative compounds: Table 1, 100 mg/kg
Experimental: A standard method of Carrageenin Edema Test in Rat's Paw described in C. A. Winter et al., Proc. Soc. Exp. Biol. Med., 111, 544 (1962) was employed.
[…] One hour later, the pad of a hind paw of the rat was injected with 0.1 ml of 1% aqueous carrageenin solution. The volume of the paw was measured both before the injection of carrageenin and three hours after the injection.
The edema inhibition percentage of the test compound was calculated from the ratio of the increase in the volume of the affected paw of the test animals to the increase in the volume of the affected paw of the controls.
The anti-inflammatory activity of the 3-aminoindazole derivative hydrochloric acid salts of this invention was measured.
The anti-inflammatory activity of the 3-aminoindazole derivative hydrochloric acid salts obtained by Examples 1-49 of this invention was measured by the standard method of carrageenin edema test. In these tests, the amount of the administration of the salts was 100 mg/kg. The results are shown in Table 17 (Inhibition (%) was measured three hours after the injection).

[2] = Acute toxicity (LD50), intravenous injection; conditions: mouse, in vivo, male ddY-strain mice, read-out: LD50, Table 19
Experimental: Acute toxicity was measured by an ordinary method described in Finney DJ Probit Analysis Cambridge University Press 48, (1952). Ddy mice weighing about 18 g on average, each group consisting of 10 animals, were […] injected with the physiological salt solution containing the test compound. The amount of the test compound administered was varied in 5-8 groups. Three days after the administration, dead animals were counted in each group. The amount of the test compound killing half the number of the animals (LD50) was calculated from the results.
The acute toxicity of the 3-aminoindazole derivatives and their hydrochloric acid salts obtained by Examples 1-49 of this invention was measured by giving male ddY-strain mice an intravenous injection.

[3] = po, 3 h, 100 mg/kg, measured three hours after the injection, read-out: Inhibition (carrageenin edema), Table 17
[4] = 100 mg/kg, oral, 3 h after carrageenin, read-out: Inhibition (carrageenin edema), Table 1

Compound `c1ccc2c(NCCN3CCCCC3)n[nH]c2c1` [Compound (1), 3-(2-piperidinoethylamino)indazole] has an inhibition in vivo at 100 mg/kg [1, 3] of 48% and an LD50 at 72 h [2] of 146 mg/kg.
Work on `c1ccc2c(NCCCCCCN3CCCCC3)n[nH]c2c1` [Compound (3), 3-(6-piperidinohexylamino)indazole] yielded an inhibition in vivo at 100 mg/kg [1, 3] of 30% and an LD50 at 72 h [2] of 143 mg/kg.
In the case of `c1ccc2c(NCCCN3CCCC3)n[nH]c2c1` [Compound (4), 3-(3-pyrrolidinopropylamino)indazole], the inhibition in vivo at 100 mg/kg [1, 3] was 30%, the inhibition in vivo at 100 mg/kg [1, 4] was 30% and the “Inhibition values compared with comparative compounds” value [1] was “higher than that of the compound C-1”. The LD50 at 72 h [2] was 97 mg/kg.
In the case of `c1ccc2c(NCCCN3CCCCCC3)n[nH]c2c1` [Compound (5), 3-(3-homopiperidinopropylamino)indazole], the inhibition in vivo at 100 mg/kg [1, 3] was 59% and the LD50 at 72 h [2] was 175 mg/kg.
With `CC1CCCC(C)N1CCCNc1n[nH]c2ccccc12` (stereo not shown) [Compound (7), 3-{3-(2,6-dimethylpiperidino)propylamino}indazole] the inhibition in vivo at 100 mg/kg [1, 3] was 35% and the LD50 at 72 h [2] was 143 mg/kg.
Work on `OC1CCN(CCCNc2n[nH]c3ccccc23)CC1` [Compound (8), 3-{3-(4-hydroxypiperidino)propylamino}indazole] yielded an inhibition in vivo at 100 mg/kg [1, 3] of 47% and an LD50 at 72 h [2] of 358 mg/kg.
Work on `ClC1CCN(CCCNc2n[nH]c3ccccc23)CC1` [Compound (9), 3-{3-(4-chloropiperidino)propylamino}indazole] yielded an inhibition in vivo at 100 mg/kg [1, 3] of 68% and an LD50 at 72 h [2] of 347 mg/kg.
For `CCCCN(CCCC)CCCNc1n[nH]c2ccccc12` [Compound (11), 3-(3-di-n-butylaminopropylamino)indazole], the inhibition in vivo at 100 mg/kg [1, 3] was 65% and the LD50 at 72 h [2] was 115 mg/kg.
In the case of `CN(C)CCNc1n[nH]c2ccccc12` [Compound (12), 3-(2-dimethylaminoethylamino)indazole], the inhibition in vivo at 100 mg/kg [1, 3] was 52% and the LD50 at 72 h [2] was 334 mg/kg.
For `CN1CCN(CCCNc2n[nH]c3ccccc23)CC1` [Compound (13), 3-{3-(4-methylpiperazino)propylamino}indazole], the inhibition in vivo at 100 mg/kg [1, 3] was 30%, the inhibition in vivo at 100 mg/kg [1, 4] was 30% and the “Inhibition values compared with comparative compounds” value [1] was “higher than that of the compound C-1”. The LD50 at 72 h [2] was 359 mg/kg.
Compound `CC(CCNc1n[nH]c2ccccc12)N1CCCCC1` (stereo not shown) [Compound (14), 3-(3-piperidinobutylamino)indazole] has an inhibition in vivo at 100 mg/kg [1, 3] of 55% and an LD50 at 72 h [2] of 95 mg/kg.
Work on `CC(C)CC(CCNc1n[nH]c2ccccc12)N1CCCCC1` (stereo not shown) [Compound (15), 3-(5-methyl-3-piperidinohexylamino)indazole] yielded an inhibition in vivo at 100 mg/kg [1, 3] of 42% and an LD50 at 72 h [2] of 144 mg/kg.
`CCN(CC)C(C)CCNc1n[nH]c2ccccc12` (stereo not shown) [Compound (16)] showed an inhibition in vivo at 100 mg/kg [1, 3] of 63% and an LD50 at 72 h [2] of 184 mg/kg.
Compound `Nc1nn(CCN2CCCCC2)c2ccccc12` [Compound (17), 1-(2-piperidinoethyl)-3-aminoindazole] has an inhibition in vivo at 100 mg/kg [1, 3] of 47% and an LD50 at 72 h [2] of 143 mg/kg.
`Nc1nn(CCCCCCN2CCCCC2)c2ccccc12` [Compound (19), 1-(6-piperidinohexyl)-3-aminoindazole] showed an inhibition in vivo at 100 mg/kg [1, 3] of 29% and an LD50 at 72 h [2] of 144 mg/kg.
`Nc1nn(CCCN2CCCC2)c2ccccc12` [Compound (20), 1-(3-pyrrolidinopropyl)-3-aminoindazole] showed an inhibition in vivo at 100 mg/kg [1, 3] of 29% and an LD50 at 72 h [2] of 98 mg/kg.
`Nc1nn(CCCN2CCCCCC2)c2ccccc12` [Compound (21), 1-(3-homopiperidinopropyl)-3-aminoindazole] gave an inhibition in vivo at 100 mg/kg [1, 3] of 58% and an LD50 at 72 h [2] of 184 mg/kg.
`CC1CCCC(C)N1CCCn1nc(N)c2ccccc21` (stereo not shown) [Compound (23), 1-{3-(2,6-dimethylpiperidino)propyl}-3-aminoindazole] showed an inhibition in vivo at 100 mg/kg [1, 3] of 34% and an LD50 at 72 h [2] of 152 mg/kg.
Compound `Nc1nn(CCCN2CCC(O)CC2)c2ccccc12` [Compound (24), 1-{3-(4-hydroxypiperidino)propyl}-3-aminoindazole] has an inhibition in vivo at 100 mg/kg [1, 3] of 46% and an LD50 at 72 h [2] of 367 mg/kg.
`Nc1nn(CCCN2CCC(Cl)CC2)c2ccccc12` [Compound (25), 1-{3-(4-chloropiperidino)propyl}-3-aminoindazole] gave an inhibition in vivo at 100 mg/kg [1, 3] of 59% and an LD50 at 72 h [2] of 356 mg/kg.
For `CCN(CC)CCCn1nc(N)c2ccccc21` [Compound (26), 1-(3-diethylaminopropyl)-3-aminoindazole], the inhibition in vivo at 100 mg/kg [1, 3] was 61% and the LD50 at 72 h [2] was 243 mg/kg.
Compound `CCCCN(CCCC)CCCn1nc(N)c2ccccc21` [Compound (27), 1-(3-di-n-butylaminopropyl)-3-aminoindazole] has an inhibition in vivo at 100 mg/kg [1, 3] of 57% and an LD50 at 72 h [2] of 124 mg/kg.
In the case of `CC(CCn1nc(N)c2ccccc21)N1CCCCC1` (stereo not shown) [Compound (29), 1-(3-piperidinobutyl)-3-aminoindazole], the inhibition in vivo at 100 mg/kg [1, 3] was 46% and the LD50 at 72 h [2] was 104 mg/kg.
With `CC(C)CC(CCn1nc(N)c2ccccc21)N1CCCCC1` (stereo not shown) [Compound (30), 1-(5-methyl-3-piperidinohexyl)-3-aminoindazole] the inhibition in vivo at 100 mg/kg [1, 3] was 35% and the LD50 at 72 h [2] was 153 mg/kg.
For `CC(C)CC(CCn1nc(N)c2ccccc21)N(C)C` (stereo not shown) [Compound (31), 1-(3-dimethylamino-5-methylhexyl)-3-aminoindazole], the inhibition in vivo at 100 mg/kg [1, 3] was 28% and the LD50 at 72 h [2] was 154 mg/kg.
`CN1CCN(CCCn2nc(N)c3ccccc32)CC1` [Compound (32), 1-{3-(4-methylpiperazino)propyl}-3-aminoindazole] showed an inhibition in vivo at 100 mg/kg [1, 3] of 27% and an LD50 at 72 h [2] of 368 mg/kg.
With `CCN(CC)CCCNc1nn(CCCN(CC)CC)c2ccccc12` [Compound (33), 1-(3-diethylaminopropyl)-3-(3-diethylaminopropylamino)indazole] the inhibition in vivo at 100 mg/kg [1, 3] was 29%, the inhibition in vivo at 100 mg/kg [1, 4] was 29% and the LD50 at 72 h [2] was 238 mg/kg.
In the case of `CCN(CC)CCCn1nc(NCCCN2CCCCC2)c2ccccc21` [Compound (34), 1-(3-diethylaminopropyl)-3-(3-piperidinopropylamino)indazole], the inhibition in vivo at 100 mg/kg [1, 3] was 28%, the inhibition in vivo at 100 mg/kg [1, 4] was 28% and the LD50 at 72 h [2] was 172 mg/kg.
Work on `CCN(CC)CCCn1nc(NCCCCCCN2CCCCC2)c2ccccc21` [Compound (35)] yielded an inhibition in vivo at 100 mg/kg [1, 3] of 21% and an LD50 at 72 h [2] of 193 mg/kg.
`CCCCN(CCCC)CCCNc1nn(CCCN(CC)CC)c2ccccc12` [Compound (36), 1-(3-diethylaminopropyl)-3-(3-di-n-butylaminopropylamino)indazole] gave an inhibition in vivo at 100 mg/kg [1, 3] of 31% and an LD50 at 72 h [2] of 179 mg/kg.
Work on `CCN(CC)CCCn1nc(NCCC(C)N2CCCCC2)c2ccccc21` (stereo not shown) [Compound (37), 1-(3-diethylaminopropyl)-3-(3-piperidinobutylamino)indazole] yielded an inhibition in vivo at 100 mg/kg [1, 3] of 27% and an LD50 at 72 h [2] of 169 mg/kg.
Work on `CCN(CC)CCCNc1nn(CCCN2CCCCC2)c2ccccc12` [Compound (38), 1-(3-piperidinopropyl)-3-(3-diethylaminopropylamino)indazole] yielded an inhibition in vivo at 100 mg/kg [1, 3] of 29%, an inhibition in vivo at 100 mg/kg [1, 4] of 29% and an LD50 at 72 h [2] of 168 mg/kg.
With `c1ccc2c(c1)c(NCCCN1CCCCC1)nn2CCCN1CCCCC1` [Compound (39), 1-(3-piperidinopropyl)-3-(3-piperidinopropylamino)indazole] the inhibition in vivo at 100 mg/kg [1, 3] was 28%, the inhibition in vivo at 100 mg/kg [1, 4] was 28% and the LD50 at 72 h [2] was 102 mg/kg.
`c1ccc2c(c1)c(NCCCCCCN1CCCCC1)nn2CCCN1CCCCC1` [Compound (40)] gave an inhibition in vivo at 100 mg/kg [1, 3] of 21% and an LD50 at 72 h [2] of 122 mg/kg.
Work on `CC(CCNc1nn(CCCN2CCCCC2)c2ccccc12)N1CCCCC1` (stereo not shown) [Compound (41), 1-(3-piperidinopropyl)-3-(3-piperidinobutylamino)indazole] yielded an inhibition in vivo at 100 mg/kg [1, 3] of 28% and an LD50 at 72 h [2] of 99 mg/kg.
Work on `CCN(CC)CCCNc1nn(CCC(C)N2CCCCC2)c2ccccc12` (stereo not shown) [Compound (42), 1-(3-piperidinobutyl)-3-(3-diethylaminopropylamino)indazole] yielded an inhibition in vivo at 100 mg/kg [1, 3] of 29% and an LD50 at 72 h [2] of 167 mg/kg.
With `CC(CCn1nc(NCCCN2CCCCC2)c2ccccc21)N1CCCCC1` (stereo not shown) [Compound (43), 1-(3-piperidinobutyl)-3-(3-piperidinopropylamino)indazole] the inhibition in vivo at 100 mg/kg [1, 3] was 28% and the LD50 at 72 h [2] was 98 mg/kg.
Work on `CCCNc1n[nH]c2ccccc12` [Compound C-1, 3-(propylamino)indazole, reference compound] yielded an inhibition in vivo at 100 mg/kg [1, 4] of 7%.
With `CCCn1nc(N)c2ccccc21` [Compound C-2, 1-propyl-3-aminoindazole, reference compound] the inhibition in vivo at 100 mg/kg [1, 4] was 7%.
With `Nc1nn(CCc2ccccc2)c2ccccc12` [Compound C-3, 1-(2-phenylethyl)-3-aminoindazole, reference compound] the inhibition in vivo at 100 mg/kg [1, 4] was 7%.
With `CN(C)CCNc1nn(-c2ccccc2)c2ccccc12` [Compound C-5, 1-phenyl-3-(2-dimethylaminoethylamino)indazole, reference compound] the “Inhibition (carrageenin edema), Table 2” value ([1]; 25 mg/kg, oral) was 15%, the “Inhibition (carrageenin edema), Table 2” value ([1]; 50 mg/kg, oral) was 18% and the “Inhibition (carrageenin edema), Table 2” value ([1]; 100 mg/kg, oral) was 55%.
